Data: patent publication US11219618B2, “Pyridylpyridone compounds” (Sprint Bioscience AB, priority 2017, dated 2022)

Assays:
Vps34 enzyme = Vps34 enzyme (Homo sapiens (Human), UniProt Q8NEB9); assay: Vps34 biochemical assay (Adapta kinase assay); conditions: 20 μM ATP and 200 μM PI:PS in substrate mix, 1 h at room temperature, TR-FRET, read-out: Median IC50 nM Adapta
Protocol: Dilution series of compounds of the invention were prepared in DMSO at 100 times the final assay concentration (n1=n0/3 in 10 points). The compounds were further diluted to 4 times the assay concentration in assay buffer (Life technologies buffer Q, PV5125, diluted 5 times supplemented with 2 mM DTT and 2 mM MnCl2). 2.5 μl of the diluted compounds were added to a 384 well assay plate followed by 2.5 μl of 16.5 nM Vps34 enzyme (Life technologies, PV5126). Enzyme and compounds were pre-incubated at rt for 15 min. Then 5 μl of substrate mix containing 20 μM ATP (Life technologies, PV3227) and 200 μM PI:PS substrate (Life technologies, PV5122) in assay buffer was added to the wells containing compound and enzyme. Mixing was performed by pipetting several times. The reaction was incubated at room temperature for 1 h. Then 5 μl stop-detection mix, prepared as described in the Adapta kinase assay kit instructions (Life technologies, PV5099) containing Adapta Eu-anti-ADP antibody (2.3 nM), Alexa Fluor 647 ADP tracer (9 nM) and EDTA (30 mM) in TR-FRET buffer, was added to quench the reaction. Mixing was performed by pipetting several times. The assay plate was then incubated at room temperature for 30 min and read with Artemis micro plate reader. Percent inhibition of the compounds as compared to DMSO treated control samples was calculated. By the use of Dotmatics software compound concentration versus percent inhibition was fitted to generate IC50 values.

[1] = tested on: autophagy in HOS cells (GFP-LC3); assay: High content screening autophagy assay (GFP-LC3 foci); format: cell-based; conditions: Homo sapiens; HOS cells expressing GFP-LC3; autophagy activated with KU-0063794 500 nM plus Bafilomycin A1 5 nM; 6 hours; foci area per cell; read-out: Median IC50 (μM) Cellular assay
Protocol: Human osteosarcoma cells (HOS) stably expressing a Green Fluorescent Protein (GFP) tagged LC3 (GFP-LC3) were used to determine the inhibitory effect on autophagy of proprietary compounds. For that purpose, autophagy was activated by using the mTOR inhibitor KU-0063794 at 500 nM in the presence of Bafilomycin A1 (Sigma-Aldrich) at 5 nM. Shortly, cells were plated overnight in clear bottom 96-well plates in DMEM—High Modified media (Hi-Clone Cat #SH30285.01). At the start of the experiment, the media was removed and replaced with fresh media containing the mTOR inhibitor, Bafilomycin A1 and the vehicle or a test compound as indicated. After 6 hours the media was removed, cells were washed twice with ice-cold phosphate buffered saline (PBS) and fixed with 4% paraformaldehyde for 20 minutes at room temperature. Then the cells were washed twice with ice-cold PBS before adding Hoechst 33342 at 1 μg/ml in PBS for nuclear staining. After incubation overnight at 4° C., cells were washed once with PBS to remove the excess of dye and 100 μl of PBS was added to each well. Images were acquired at 20× magnification, 6 images per well, using the ImageXpress automated microscope (Molecular Devices Inc.) and analyzed with MetaXpress software to identify LC3-GFP foci. Foci area per cell values were used to generate dose response curves and […] were calculated using the non-linear fitting analysis in GraphPad Prism software.
The results of the assay are shown in Table 2 (Median IC50 μM HOS-LC3).

Chain of Vps34 enzyme (Q8NEB9 whole entry): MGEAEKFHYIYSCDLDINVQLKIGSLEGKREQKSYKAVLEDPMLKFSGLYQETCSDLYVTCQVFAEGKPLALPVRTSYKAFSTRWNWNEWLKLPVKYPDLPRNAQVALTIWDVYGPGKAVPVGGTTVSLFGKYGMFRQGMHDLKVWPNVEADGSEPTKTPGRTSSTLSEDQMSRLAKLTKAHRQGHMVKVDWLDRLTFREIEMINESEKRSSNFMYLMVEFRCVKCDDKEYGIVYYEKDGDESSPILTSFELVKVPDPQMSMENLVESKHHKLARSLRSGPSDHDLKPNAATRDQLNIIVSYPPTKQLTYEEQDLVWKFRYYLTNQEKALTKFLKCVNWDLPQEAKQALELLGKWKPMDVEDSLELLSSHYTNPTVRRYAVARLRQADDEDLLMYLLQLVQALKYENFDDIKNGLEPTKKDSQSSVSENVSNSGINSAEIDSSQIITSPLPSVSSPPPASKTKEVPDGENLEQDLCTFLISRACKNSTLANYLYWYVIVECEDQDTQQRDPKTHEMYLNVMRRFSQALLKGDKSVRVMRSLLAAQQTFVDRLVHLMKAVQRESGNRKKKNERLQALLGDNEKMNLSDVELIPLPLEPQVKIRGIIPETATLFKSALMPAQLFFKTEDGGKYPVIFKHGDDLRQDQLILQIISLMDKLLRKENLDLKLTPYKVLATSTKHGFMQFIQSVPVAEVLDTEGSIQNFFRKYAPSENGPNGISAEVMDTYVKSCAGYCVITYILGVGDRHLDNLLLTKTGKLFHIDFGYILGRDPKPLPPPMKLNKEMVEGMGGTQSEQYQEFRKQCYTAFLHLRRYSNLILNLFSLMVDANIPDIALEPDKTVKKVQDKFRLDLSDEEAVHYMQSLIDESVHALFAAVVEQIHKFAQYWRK

| Structure (SMILES) | IC50 (Vps34 enzyme) [nM] | IC50 [1] [µM] |
| --- | --- | --- |
| CC(=O)Nc1cc(-c2cc(-c3cccnc3C(F)(F)F)[nH]c(=O)c2)ccn1 [Example 36, N-[4-[2-oxo-6-[2-(trifluoromethyl)-3-pyridyl]-1H-pyridin-4-yl]-2-pyridyl]acetamide] | < 5 | 0.092 |
| CCn1cc(-c2cc(-c3ccnc(NC(C)=O)c3)cc(=O)[nH]2)c(C(F)(F)F)n1 [Example 44, N-[4-[2-[1-ethyl-3-(trifluoromethyl)pyrazol-4-yl]-6-oxo-1H-pyridin-4-yl]-2-pyridyl]acetamide] | < 5 | 0.138 |
| CC(=O)Nc1cc(-c2cc(N3CCOCC3C(F)(F)F)[nH]c(=O)c2)ccn1 (stereo not drawn) [Example 26, N-[4-[2-oxo-6-[3-(trifluoromethyl)morpholin-4-yl]-1H-pyridin-4-yl]-2-pyridyl]acetamide] | < 5 | 0.113 |
| Nc1cc(-c2cc(-c3cccnc3)[nH]c(=O)c2)ccn1 [Example 5, 4-(2-Amino-4-pyridyl)-6-(3-pyridyl)-1H-pyridin-2-one] | 410 | – |
| CC(=O)Nc1cc(-c2cc(-c3cscc3C(F)(F)F)[nH]c(=O)c2)ccn1 [Example 42, N-[4-[2-oxo-6-[4-(trifluoromethyl)-3-thienyl]-1H-pyridin-4-yl]-2-pyridyl]acetamide] | < 5 | 0.046 |
| COCC(=O)Nc1cc(-c2cc(-c3ccccc3Cl)[nH]c(=O)c2)ccn1 [Example 12, N-[4-[2-(2-chlorophenyl)-6-oxo-1H-pyridin-4-yl]-2-pyridyl]-2-methoxy-acetamide] | 7 | 0.147 |
| CC(=O)Nc1cc(-c2cc(-c3cnccc3C)[nH]c(=O)c2)ccn1 [Example 40, N-[4-[2-(4-methyl-3-pyridyl)-6-oxo-1H-pyridin-4-yl]-2-pyridyl]acetamide] | < 5 | – |
| CCS(=O)(=O)N1CCN(c2cc(-c3ccnc(NC(C)=O)c3)cc(=O)[nH]2)C(C(F)(F)F)C1 (stereo not drawn) [Example 30, N-[4-[2-[4-ethylsulfonyl-2-(trifluoromethyl)piperazin-1-yl]-6-oxo-1H-pyridin-4-yl]-2-pyridyl]acetamide] | < 5 | 0.02 |
| Nc1cc(-c2cc(-c3ccccc3Cl)[nH]c(=O)c2)ccn1 [Example 11, 4-(2-Amino-4-pyridyl)-6-(2-chlorophenyl)-1H-pyridin-2-one] | 45 | 0.742 |
| CC(=O)Nc1cc(-c2cc(N3CCOCC3C3CC3)[nH]c(=O)c2)ccn1 (stereo not drawn) [Example 32, N-[4-[2-(3-cyclopropylmorpholin-4-yl)-6-oxo-1H-pyridin-4-yl]-2-pyridyl]acetamide] | 5 | – |
| CC(=O)Nc1cc(-c2cc(-c3ccccc3C(F)(F)F)[nH]c(=O)c2)ccn1 [Example 34, N-[4-[2-oxo-6-[2-(trifluoromethyl)phenyl]-1H-pyridin-4-yl]-2-pyridyl]acetamide] | < 5 | 0.063 |
| CC(=O)Nc1cc(-c2cc(-c3cccnc3C)[nH]c(=O)c2)ccn1 [Example 38, N-[4-[2-(2-methyl-3-pyridyl)-6-oxo-1H-pyridin-4-yl]-2-pyridyl]acetamide] | < 5 | – |
| CC(=O)Nc1cc(-c2cc(N3CCCCC3C(F)(F)F)[nH]c(=O)c2)ccn1 (stereo not drawn) [Example 19, N-[4-[2-oxo-6-[2-(trifluoromethyl)-1-piperidyl]-1H-pyridin-4-yl]-2-pyridyl]acetamide] | 12 | 0.067 |
| CC(=O)Nc1cc(-c2cc(-c3ccccc3Cl)[nH]c(=O)c2)ccn1 [Example 1, N-[4-[2-(2-chlorophenyl)-6-oxo-1H-pyridin-4-yl]-2-pyridyl]acetamide] | – | 0.026 |
| O=C(Nc1cc(-c2cc(N3CCCCC3C(F)(F)F)[nH]c(=O)c2)ccn1)C1CC1 (stereo not drawn) [Example 21, N-[4-[2-oxo-6-[2-(trifluoromethyl)-1-piperidyl]-1H-pyridin-4-yl]-2-pyridyl]cyclopropanecarboxamide] | < 5 | 0.016 |

The remaining lines, values ahead:

| IC50 (Vps34 enzyme) [nM] | IC50 [1] [µM] | Structure (SMILES) |
| --- | --- | --- |
| 50 | – | CN(C)C(=O)Nc1cc(-c2cc(-c3ccccc3C(F)(F)F)[nH]c(=O)c2)ccn1 [Example 62, 1,1-Dimethyl-3-[4-[2-oxo-6-[2-(trifluoromethyl)phenyl]-1H-pyridin-4-yl]-2-pyridyl]urea] |
| 147 | – | O=C(Nc1cc(-c2cc(-c3ccccc3C(F)(F)F)[nH]c(=O)c2)ccn1)N1CCCC1 [Example 66, N-[4-[2-oxo-6-[2-(trifluoromethyl)phenyl]-1H-pyridin-4-yl]-2-pyridyl]pyrrolidine-1-carboxamide] |
| < 5 | 0.023 | COC(=O)Nc1cc(-c2cc(N3CCOCC3C(F)(F)F)[nH]c(=O)c2)ccn1 (stereo not drawn) [Example 45, Methyl N-[4-[2-oxo-6-[3-(trifluoromethyl)morpholin-4-yl]-1H-pyridin-4-yl]-2-pyridyl]carbamate] |
| < 5 | 0.02 | COC(=O)Nc1cc(-c2cc(-c3ccccc3C(F)(F)F)[nH]c(=O)c2)ccn1 [Example 48, Methyl N-[4-[2-oxo-6-[2-(trifluoromethyl)phenyl]-1H-pyridin-4-yl]-2-pyridyl]carbamate] |
| < 5 | – | COC(=O)Nc1cc(-c2cc(N3CCCCC3C(F)(F)F)[nH]c(=O)c2)ccn1 (stereo not drawn) [Example 70, Methyl N-[4-[2-oxo-6-[2-(trifluoromethyl)-1-piperidyl]-1H-pyridin-4-yl]-2-pyridyl]carbamate] |
| 26 | – | COC(C)(C)C1CCCN1c1cc(-c2ccnc(NC(C)=O)c2)cc(=O)[nH]1 (stereo not drawn) [Example 68, N-[4-[2-[2-(1-methoxy-1-methyl-ethyl)pyrrolidin-1-yl]-6-oxo-1H-pyridin-4-yl]-2-pyridyl]acetamide] |
| < 5 | 0.022 | COC(=O)Nc1cc(-c2cc(-c3cccnc3C(F)(F)F)[nH]c(=O)c2)ccn1 [Example 52, Methyl N-[4-[2-oxo-6-[2-(trifluoromethyl)-3-pyridyl]-1H-pyridin-4-yl]-2-pyridyl]carbamate] |
| < 5 | 0.029 | COC(=O)Nc1cc(-c2cc(-c3ccccc3Cl)[nH]c(=O)c2)ccn1 [Example 50, Methyl N-[4-[2-(2-chlorophenyl)-6-oxo-1H-pyridin-4-yl]-2-pyridyl]carbamate] |
| < 5 | 0.105 | CCn1cc(-c2cc(-c3ccnc(NC(=O)OC)c3)cc(=O)[nH]2)c(C(F)(F)F)n1 [Example 54, Methyl N-[4-[2-[1-ethyl-3-(trifluoromethyl)pyrazol-4-yl]-6-oxo-1H-pyridin-4-yl]-2-pyridyl]carbamate] |
